Values joined by “and” are separate entries in the source; they are usually repeats but may differ in a detail not shown here. Equal values may be shown once. Toxic doses and inconclusive results are not listed. Cut-off read from the data, not from the text of the source: active = T/C of 150% or more; inactive = T/C below 125%.
Tested on: L1210 leukemia ip in BDF1 mice, survival T/C
Test: NCI In Vivo Anticancer Drug Screen. Data for tumor model L1210 Leukemia (intraperitoneal) in B6D2F1 (BDF1) mice
Settings: endpoint: mean survival time, higher = longer survival
Procedure, shortened: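 Tumor cells were implanted, animals were treated, and survival was followed. The result divides the treated measurement by the vehicle-control measurement.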

[1] = dose: 100.0 mg/kg/injection, schedule: Q01DX009 (ip), vehicle: Klucel (hydroxypropylcellulose) (HPC)
[2] = dose: 200.0 mg/kg/injection, schedule: Q01DX009 (ip), vehicle: Klucel (hydroxypropylcellulose) (HPC)
[3] = dose: 400.0 mg/kg/injection, schedule: Q01DX009 (ip), vehicle: Klucel (hydroxypropylcellulose) (HPC)
[4] = dose: 33.0 mg/kg/injection, schedule: Q01DX001 (ip), vehicle: carboxymethylcellulose (CMC)

Measured: T/C

COc1cccc2c1C(=O)c1c(O)c3c(c(O)c1C2=O)CC(O)(C(C)=O)CC3OC1CC(NC(=O)C(F)(F)F)C(O)C(C)O1 (stereo unspecified)
inactive: dose: 0.25 mg/kg/injection, schedule: Q04DX003 (ip), vehicle: water 96 % of control | dose: 0.5 mg/kg/injection, schedule: Q04DX003 (ip), vehicle: water 95 % of control | dose: 1.0 mg/kg/injection, schedule: Q04DX003 (ip), vehicle: water 106 % of control | dose: 2.0 mg/kg/injection, schedule: Q04DX003 (ip), vehicle: water 111 % of control | dose: 4.0 mg/kg/injection, schedule: Q04DX003 (ip), vehicle: water 98 % of control | dose: 8.0 mg/kg/injection, schedule: Q04DX003 (ip), vehicle: water 90 % of control | dose: 14.0 mg/kg/injection, schedule: Q04DX003 (ip), vehicle: water 107 % of control | dose: 16.0 mg/kg/injection, schedule: Q04DX003 (ip), vehicle: water 101 % of control | dose: 21.0 mg/kg/injection, schedule: Q04DX003 (ip), vehicle: water 113 % of control | dose: 25.0 mg/kg/injection, schedule: Q04DX003 (ip), vehicle: water 110 % of control | dose: 32.0 mg/kg/injection, schedule: Q04DX003 (ip), vehicle: water 110 % of control | dose: 50.0 mg/kg/injection, schedule: Q04DX003 (ip), vehicle: water 107 % of control and 112 % of control | dose: 100.0 mg/kg/injection, schedule: Q04DX003 (ip), vehicle: water 112 % of control

Cc1ncnc2[nH]c(=S)[nH]c12
inactive: dose: 75.0 mg/kg/injection, schedule: Q01DX001 (ip), vehicle: saline 105 % of control | dose: 150.0 mg/kg/injection, schedule: Q01DX001 (ip), vehicle: saline 101 % of control | dose: 300.0 mg/kg/injection, schedule: Q01DX001 (ip), vehicle: saline 100 % of control

O=[N+]([O-])c1ccc(C2OC2c2ccccc2)cc1 (stereo unspecified)
inactive: [1] 101 % of control | dose: 100.0 mg/kg/injection, schedule: Q04DX003 (ip), vehicle: Klucel (hydroxypropylcellulose) (HPC) 100 % of control | [2] 95 % of control | dose: 200.0 mg/kg/injection, schedule: Q04DX003 (ip), vehicle: Klucel (hydroxypropylcellulose) (HPC) 95 % of control | [3] 95 % of control | dose: 400.0 mg/kg/injection, schedule: Q04DX003 (ip), vehicle: Klucel (hydroxypropylcellulose) (HPC) 97 % of control

OCn1c2ccccc2c2ccccc21
inactive: dose: 100.0 mg/kg/injection, schedule: Q01DX001 (ip), vehicle: other 98 % of control | dose: 100.0 mg/kg/injection, schedule: Q04DX002 (ip), vehicle: Klucel (hydroxypropylcellulose) (HPC) 113 % of control | dose: 200.0 mg/kg/injection, schedule: Q01DX001 (ip), vehicle: other 92 % of control | dose: 200.0 mg/kg/injection, schedule: Q04DX002 (ip), vehicle: Klucel (hydroxypropylcellulose) (HPC) 94 % of control | dose: 400.0 mg/kg/injection, schedule: Q01DX001 (ip), vehicle: other 98 % of control | dose: 400.0 mg/kg/injection, schedule: Q04DX002 (ip), vehicle: Klucel (hydroxypropylcellulose) (HPC) 113 % of control

CCCCCCN(CCCCCC)CC(=O)NCCCN1CCN(CCCNC(=O)CN(CCCCCC)CCCCCC)CC1
inactive: dose: 12.5 mg/kg/injection, schedule: Q01DX001 (ip), vehicle: carboxymethylcellulose (CMC) 105 % of control | dose: 22.0 mg/kg/injection, schedule: Q01DX001 (ip), vehicle: carboxymethylcellulose (CMC) 98 % of control and 104 % of control | dose: 25.0 mg/kg/injection, schedule: Q01DX001 (ip), vehicle: carboxymethylcellulose (CMC) 100 % of control | [4] 95 % of control and 100 % of control | dose: 50.0 mg/kg/injection, schedule: Q01DX001 (ip), vehicle: carboxymethylcellulose (CMC) 98 % of control and 101 % of control

Cc1ccc(S(=O)(=O)NC(=O)C(C)Br)cc1 (stereo unspecified)
inactive: dose: 150.0 mg/kg/injection, schedule: Q01DX001 (ip), vehicle: steriod suspending solution 95 % of control | dose: 300.0 mg/kg/injection, schedule: Q01DX001 (ip), vehicle: steriod suspending solution 95 % of control

c1ccc(CNC(Cc2ccccc2)c2ccc(OCc3ccccc3)cc2)cc1 (stereo unspecified)
inactive: [1] 93 % of control | [2] 89 % of control | [3] 89 % of control

[O-][n+]1ccc(CCc2ccccc2)cc1
inactive: dose: 100.0 mg/kg/injection, schedule: Q04DX002 (ip), vehicle: saline with Tween-80 101 % of control | dose: 200.0 mg/kg/injection, schedule: Q04DX002 (ip), vehicle: saline with Tween-80 101 % of control

COC(=O)CCC(=O)Nc1ccc(C(=O)CBr)cc1
inactive: dose: 6.25 mg/kg/injection, schedule: Q01DX009 (ip), vehicle: Klucel (hydroxypropylcellulose) (HPC) 98 % of control | dose: 12.5 mg/kg/injection, schedule: Q01DX009 (ip), vehicle: Klucel (hydroxypropylcellulose) (HPC) 96 % of control | dose: 12.5 mg/kg/injection, schedule: Q04DX003 (ip), vehicle: Klucel (hydroxypropylcellulose) (HPC) 97 % of control | dose: 25.0 mg/kg/injection, schedule: Q01DX009 (ip), vehicle: Klucel (hydroxypropylcellulose) (HPC) 102 % of control | dose: 25.0 mg/kg/injection, schedule: Q04DX003 (ip), vehicle: Klucel (hydroxypropylcellulose) (HPC) 96 % of control | dose: 35.0 mg/kg/injection, schedule: Q01DX009 (ip), vehicle: Klucel (hydroxypropylcellulose) (HPC) 95 % of control | dose: 55.0 mg/kg/injection, schedule: Q01DX009 (ip), vehicle: Klucel (hydroxypropylcellulose) (HPC) 93 % of control

NC(=O)NC(=O)COc1ccc(Cl)cc1Cl
inactive: dose: 100.0 mg/kg/injection, schedule: Q04DX002 (ip), vehicle: saline + alcohol 96 % of control | dose: 200.0 mg/kg/injection, schedule: Q04DX002 (ip), vehicle: saline + alcohol 103 % of control

CCCCCCCCC(CCc1ccccc1)CCc1ccccc1
inactive: dose: 100.0 mg/kg/injection, schedule: Q01DX001 (ip), vehicle: saline with Tween-80 93 % of control | dose: 200.0 mg/kg/injection, schedule: Q01DX001 (ip), vehicle: saline with Tween-80 93 % of control | dose: 400.0 mg/kg/injection, schedule: Q01DX001 (ip), vehicle: saline with Tween-80 96 % of control

CC1(C)OCC2SC(n3cnc4c(N)ncnc43)C(O)C2O1 (stereo unspecified)
inactive: dose: 25.0 mg/kg/injection, schedule: Q01DX009 (ip), vehicle: saline 94 % of control | [4] 97 % of control | dose: 50.0 mg/kg/injection, schedule: Q01DX009 (ip), vehicle: saline 98 % of control | dose: 66.5 mg/kg/injection, schedule: Q01DX001 (ip), vehicle: carboxymethylcellulose (CMC) 92 % of control | dose: 100.0 mg/kg/injection, schedule: Q01DX005 (ip), vehicle: saline 94 % of control and 97 % of control | dose: 100.0 mg/kg/injection, schedule: Q01DX009 (ip), vehicle: saline 98 % of control | dose: 133.0 mg/kg/injection, schedule: Q01DX001 (ip), vehicle: carboxymethylcellulose (CMC) 92 % of control | dose: 200.0 mg/kg/injection, schedule: Q01DX005 (ip), vehicle: saline 95 % of control

COc1ccc(C(=O)O)nc1C
inactive: dose: 75.0 mg/kg/injection, schedule: Q01DX001 (ip), vehicle: acetone 98 % of control | dose: 150.0 mg/kg/injection, schedule: Q01DX001 (ip), vehicle: acetone 101 % of control | dose: 300.0 mg/kg/injection, schedule: Q01DX001 (ip), vehicle: acetone 98 % of control

C/C(CC(=O)N1CCCCC1)=N\NC(N)=S
inactive: dose: 100.0 mg/kg/injection, schedule: Q01DX001 (ip), vehicle: carboxymethylcellulose (CMC) 97 % of control | dose: 200.0 mg/kg/injection, schedule: Q01DX001 (ip), vehicle: carboxymethylcellulose (CMC) 103 % of control | dose: 400.0 mg/kg/injection, schedule: Q01DX001 (ip), vehicle: carboxymethylcellulose (CMC) 94 % of control

Source: PubChem BioAssay AID248 (DTP/NCI, 2004)
